A short description of test [1]: Inhibition of concanavalin A stimulated rat splenocyte proliferation.
The nature of test [2]: Inhibition of concanavalin A stimulated T-cell proliferation in human PBMCs.

Bounds are passed on as bounds.

Take `C=CCC1Oc2cccc(C=C)c2-c2ccc3c(c21)C(C)=CC(C)(C)N3` (configuration not stated) [5-Allyl-2,2,4-trimethyl-10-vinyl-2,5-dihydro-1H-6-oxa-1-aza-chrysene]: the EC50 in test [1] was 90 nM; in test [2] it was more than 1000 nM.

Turning to `C=CCC1Oc2cccc(Cl)c2-c2ccc3c(c21)C(C)=CC(C)(C)N3` (configuration not stated) [5-Allyl-10-chloro-2,2,4-trimethyl-2,5-dihydro-1H-6-oxa-1-aza-chrysene], the EC50 in test [1] is more than 1000 nM; in test [2], 440 nM.

`C=CCC1Oc2cccc(OC(F)F)c2-c2ccc3c(c21)C(C)=CC(C)(C)N3` (configuration not stated) [5-Allyl-10-difluoromethoxy-2,2,4-trimethyl-2,5-dihydro-1H-6-oxa-1-aza-chrysene]: the values for the EC50 in test [1] and in test [2] were 85 nM and 563 nM, respectively.

Turning to `C=CCC1Oc2ccc(O)c(OC)c2-c2ccc3c(c21)C(C)=CC(C)(C)N3` (configuration not stated) [5-Allyl-10-methoxy-2,2,4-trimethyl-2,5-dihydro-1H-6-oxa-1-aza-chrysen-9-ol], the EC50 in test [1] was 78 nM; in test [2], 145 nM.

In the case of `C=CCC1Oc2cccc(OC)c2-c2ccc3c(c21)C(C)=CC(C)(C)N3` (configuration not stated) [5-Allyl-10-methoxy-2,2,4-trimethyl-2,5-dihydro-1H-6-oxa-1-aza-chrysene], the EC50 in test [1] came to 48 nM; in test [2], 780 nM.

In the case of `C=CCC1Oc2cccc(NC)c2-c2ccc3c(c21)C(C)=CC(C)(C)N3` (configuration not stated) [(5-Allyl-2,2,4-trimethyl-2,5-dihydro-1H-6-oxa-1-aza-chrysen-10-yl)-methyl-amine], the EC50 in test [1] stood at 48 nM; in test [2] it was 418 nM.

A word on the EC50: it is the midpoint of the concentration-response curve.
